Source: patent US7144880B2, “Compositions relating to novel compounds and targets thereof” (Regents of the University of Michigan, priority 2003, dated 2006)
Read-outs that look alike come from different tables or passages of the source.

What was measured:
[1] = target: T1, mitochondrial F1F0-ATPase (Bos taurus, UniProt P13621); assay: ATPase activity in sub-mitochondrial particles (SMPs); type: biochemical, bovine; conditions: 80 μM
T1 construct: from tissue
Description: Oligomycin, a macrolide natural product that binds to the mitochondrial F1F0-ATPase, induces a state 3 to 4 transition and generates O2^− like Bz-423. Based on these similarities, it is possible that the F1F0-ATPase is also the molecular target for Bz-423. To test this hypothesis, the effect of Bz-423 on ATPase activity in sub-mitochondrial particles (SMPs) was examined.
>40 derivatives of Bz-423 were developed to determine the elements on this novel agent required for biological activity. […] The potency of these analogues in cell based assays correlated with the ED50 values in ATPase inhibition experiments using SMPs.

[2] = test system: panel of cells in Table 2; assay: Antiproliferation against the panel of cells, 3 d; type: cell-based; conditions: after 3 d
human OSCP = target: T2, human OSCP (Homo sapiens, UniProt P48047); assay: Quenching of intrinsic OSCP fluorescence on titration (binding isotherm); conditions: Bz-Cl, binds less tightly
T2 construct: made in house; host or cells: E. coli
Description: Oligomycin is a macrolide natural product that binds to the mitochondrial F1F0-ATPase, induces a state 3 to 4 transition, and as a result, generates ROS (e.g., O2^−). In preferred embodiments, the present invention binds the OSCP component of the mitochondrial F1F0-ATPase. In certain embodiments, screening assays of the present invention permit detection of binding partners of the OSCP. OSCP is an intrinsically fluorescent protein. In certain embodiments, titrating a solution of test compounds of the present invention into an E. Coli sample overexpressed with OSCP results in quenching of the intrinsic OSCP fluorescence. In other embodiments, fluorescent or radioactive test compounds can be used in direct binding assays. In other embodiments, competition binding experiments can be conducted. In this type of assay, test compounds are assessed for their ability to compete with Bz-423 for binding to the OSCP. In some embodiments, the compounds of the present invention cause a reduced increase in cellular ROS levels and reduced apoptosis in cells through regulation of the OSCP gene (e.g., altering expression of the OSCP gene). In further embodiments, the present invention functions by altering the molecular motions of the ATPase motor.
To determine if Bz-423 indeed binds to the OSCP and the affinity of the interaction, human OSCP was overexpressed in E. coli. […]

cells = type: cell-based
[3] = test system: ornithine decarboxylase (ODC); assay: ODC activity in treated cells, conversion of 3H-ornithine to putrescine; type: cell-based; conditions: cells treated 4 h
Description: In these experiments, the conversion of ornithine to putrescine was quantified using ^3H-ornithine. For comparisons, control cells were treated with vehicle control or difluoromethyl ornithine (DFMO), a potent inhibitor of ornithine decarboxylase (like Bz-423, DFMO is a potent anti-proliferative agent). […] The reduction in ODC activity was paralleled by a decrease in ODC protein levels measured under the same conditions.
As described above, Bz-423 induced apoptosis was signaled by an ROS response that arose from MRC complex III as a result of the state 3 to 4 transition. It was next sought to determine if the ROS response, critical for apoptosis, also mediated these effects on ODC. If the ROS was required for the decrease in ODC activity, it would likewise be implicated as potentially part of the anti-proliferative response to Bz-423. To test this, Ramos cells were treated with Bz-423, DFMO, or vehicle control for 4 h. In parallel, a second group of cells was pre-incubated with MnTBAP to limit the ROS and then cultured with Bz-423, DFMO, and vehicle control.

Ramos B cells [4] = assay: cells; type: cell-based, human
Description: Cell viability is assessed by staining with propidium iodide (PI, 1 μg/mL). PI fluorescence is measured using a FACScalibur flow cytometer (Becton Dickinson, San Diego, Calif.). Measurement of hypodiploid DNA is conducted after incubating cells in DNA-labeling solution (50 μg/mL of PI in PBS containing 0.2% Triton and 10 μg/mL RNAse A) overnight at 4 degrees C. The data is analyzed using the CellQuest software excluding aggregates.

Ramos B cells [5] = type: cell-based, human; conditions: micromolar FK506
[6] = test system: isolated rat liver mitochondria; assay: ROS production in isolated mitochondria (DCFH oxidation to DCF); type: biochemical
Description: Male Long Evans rats are starved overnight and sacrificed by decapitation. Liver samples are homogenized in ice cold buffer A (250 mM sucrose, 10 mM Tris, 0.1 mM EGTA, pH 7.4), and nuclei and cellular debris are pelleted (10 min, 830 g, 4° C.). Mitochondria are collected by centrifugation (10 min, 15,000 g, 4° C.), and the supernatant is collected as the S15 fraction. The mitochondrial pellet is washed three times with buffer B (250 mM sucrose, 10 mM Tris, pH 7.4), and re-suspended in buffer B at 20–30 mg/mL. Mitochondria are diluted (0.5 mg/mL) in buffer C (200 mM sucrose, 10 mM Tris, pH 7.4, 1 mM KH2PO4, 10 μM EGTA, 2.5 μM rotenone, 5 mM succinate) containing 2′,7′-dichlorodihydrofluorescin diacetate (DCFH-DA, 1 μM). For state 3 measurements, ADP (2 mM) is included in the buffer, and prior to the addition of Bz-423, mitochondria are allowed to charge for 2 min. To induce state 4, oligomycin (10 μM) is added to buffer C. […] To detect effects on O2^− and delta ψm, mitochondria are incubated for 15 min at 37° C. in buffer C with vehicle, Bz-423, or CCCP containing DHE (5 μM) or DIOC6(3) (20 nM), and aliquots are removed for analysis by fluorescence microscopy.
O2^− production by Bz-423 may result from binding to a protein within mitochondria or a target in another compartment that signals mitochondria to generate ROS. To distinguish between these alternatives, isolated rat liver mitochondria were assayed for ROS production by monitoring the oxidation of 2′,7′-dichlorodihydrofluorescin diacetate to of 2′,7′-dichlorofluorescin in the presence and absence of Bz-423. In this assay, the rate of DCF production increased after a lag period during which endogenous reducing equivalents were consumed and the acetate moieties on the probe were hydrolyzed to yield 2′,7′-dichlorodihydrofluorescin, the redox-active species.

[7] = Ramos B cells, 24 h, propidium iodide exclusion, flow cytometry, error ±5%, read-out: EC50 (μM), cell death

T2 sequence (P48047 24-213): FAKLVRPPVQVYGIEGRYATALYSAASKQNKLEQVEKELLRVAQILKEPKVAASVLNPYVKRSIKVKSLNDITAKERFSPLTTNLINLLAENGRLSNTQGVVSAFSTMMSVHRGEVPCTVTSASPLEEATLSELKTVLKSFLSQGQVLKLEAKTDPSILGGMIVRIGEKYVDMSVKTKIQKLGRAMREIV

CN1C(=O)CN=C(c2ccc(Cl)cc2)c2cc(Cl)ccc21 [4-Cl-diazepam, 4-chlorodiazepam]
Inhibition of mitochondrial ATPase activity [1]: do not significantly inhibit

CN1C(=O)C(Cc2ccc3ccccc3c2)N=C(c2ccc(Cl)cc2)c2cc(Cl)ccc21 (centres unmarked) [Bz-Cl]
Reduction of proliferation compared with Bz-423 [2]: comparable ED50 values
Kd (human OSCP): ~5 µM
Decrease of cytotoxic activity compared to Bz-423 (cells): ~80%
Effect on ODC activity [3]: inhibited ODC activity

CN1C(=O)CN=C(c2ccc(O)cc2)c2cc(Cl)ccc21 [Compound 1]
EC50 (Ramos B cells [4]; [7]): > 80 µM

CN1C(=O)C(Cc2ccc3ccccc3c2)N=C(c2ccccc2)c2cc(Cl)ccc21 (centres unmarked) [Compound 2]
EC50 (Ramos B cells [4]; [7]): > 80 µM

Cc1cc(C2=NC(Cc3ccc4ccccc4c3)C(=O)N(C)c3ccc(Cl)cc32)ccc1O (centres unmarked) [Compound 16]
Cytotoxic potency compared with Bz-423 (Ramos B cells [4]): does not alter the activity
EC50 (Ramos B cells [4]; assessed as described in Table 1, read-out: EC50, cell death): 3 µM
Inhibition of compound-induced cell death by FK506 (Ramos B cells [5]): ≈ 60%

CCC(C)N(C)C(=O)c1cc2ccccc2c(-c2ccccc2Cl)n1 (centres unmarked) [PK11195, reference compound]
Inhibition of mitochondrial ATPase activity [1]: do not significantly inhibit
EC50 (Ramos B cells [4]; Homo sapiens, Ramos B cells, 24 h, propidium iodide exclusion, flow cytometry, error ±5%, read-out: EC50 (μM), cell death): > 80 µM

antimycin A [reference compound]
Increase in rate of ROS production versus control ([6]; state 3 respiration, aerobic, after induction phase, slopes compared to control): nearly two-fold
ROS production in state 4 mitochondria ([6]; state 4 respiration): is active
